In patent publication US12606554B2, “Compounds and pharmaceutical compositions thereof for the treatment of diseases” (ONCO3R Therapeutics BV, priority 2019, dated 2026):

Columns and labels:
SIK2 = biological target: T1, SIK2 (Homo sapiens, UniProt Q9H0K1); assay: ADP-Glo kinase assay, SIK2; type: biochemical; conditions: AMARA peptide 45 μM, 5 μM ATP, 120 min
T1 construct: purchased ThermoFisher Scientific PV4792
Text: (§1) The ADP-Glo™ kinase assay is a luminescent technology assay which measures the ADP formed from a kinase reaction. In this specific study, the kinase reactions consisted of the phosphorylation of the AMARA peptide substrate (SignalChem, Cat #A11-58) by SIK1 (Carma Biosciences, Cat #02-131), SIK2 (ThermoFisher Scientific, Cat #PV4792) or SIK3 (SignalChem, Cat #S12-11G-100). In a second step the kinase reactions are terminated and all the remaining ATP is depleted. In a final step the ADP is converted into ATP and this newly synthesized ATP is measured by using a luciferase/luciferin reaction. The generated light is measured using an Envision plate reader, wherein the luminescent signal obtained positively correlates with the kinase activity.
(§2) The test compounds are prepared as a serial dilution of 10 point dose responses with ⅕ dilution steps in 100% DMSO starting from 2 mM highest concentration, diluted 1/20 in water and […] is transferred to the assay plates (PerkinElmer Inc., Cat #6007290).
(§3) 1% DMSO and 10 μM staurosporine final concentrations are used as negative and positive controls.
(§4) 2 μL enzyme-substrate mixture is added to the assay plates.
(§5) The reaction is started by adding 2 μL diluted ATP on the assay plates. Plates are centrifuged for a few seconds at 1000 rpm and gently shaken for 2 min followed by an incubation at RT for 120 min.
(§6) The reactions are stopped and the unconsumed ATP is depleted by adding 5 μL ADP-Glo Reagent (Promega, Cat #V9121B) to the reaction. The plates are centrifuged for a few seconds at 1000 rpm and incubated at RT for […] (ATP depletion).
(§7) The ADP is converted to ATP and luciferase and luciferin is introduced to detect ATP by adding 10 μL Kinase Detection Reagent (Promega, Cat #V913B+V914r) to the reaction. The plates are centrifuged for a few seconds at 1000 rpm and incubated at RT for 30 min (ADP detection).
(§8) Luminescence is measured on an Envision plate reader (PerkinElmer Inc.).
(§9) Raw data are generated following the read-out performed on the TopCount, plotted to generate dose response curves to calculate percentage inhibition (PIN) and average IC50 for each SIK homologue which are reported in the table below.

SIK3 = biological target: T2, SIK3 (Homo sapiens, UniProt Q9Y2K2); assay: ADP-Glo kinase assay, SIK3; type: biochemical; conditions: AMARA peptide 45 μM, 5 μM ATP, 120 min
T2 construct: purchased SignalChem S12-11G-100
T2 sequence (Q9Y2K2 whole entry): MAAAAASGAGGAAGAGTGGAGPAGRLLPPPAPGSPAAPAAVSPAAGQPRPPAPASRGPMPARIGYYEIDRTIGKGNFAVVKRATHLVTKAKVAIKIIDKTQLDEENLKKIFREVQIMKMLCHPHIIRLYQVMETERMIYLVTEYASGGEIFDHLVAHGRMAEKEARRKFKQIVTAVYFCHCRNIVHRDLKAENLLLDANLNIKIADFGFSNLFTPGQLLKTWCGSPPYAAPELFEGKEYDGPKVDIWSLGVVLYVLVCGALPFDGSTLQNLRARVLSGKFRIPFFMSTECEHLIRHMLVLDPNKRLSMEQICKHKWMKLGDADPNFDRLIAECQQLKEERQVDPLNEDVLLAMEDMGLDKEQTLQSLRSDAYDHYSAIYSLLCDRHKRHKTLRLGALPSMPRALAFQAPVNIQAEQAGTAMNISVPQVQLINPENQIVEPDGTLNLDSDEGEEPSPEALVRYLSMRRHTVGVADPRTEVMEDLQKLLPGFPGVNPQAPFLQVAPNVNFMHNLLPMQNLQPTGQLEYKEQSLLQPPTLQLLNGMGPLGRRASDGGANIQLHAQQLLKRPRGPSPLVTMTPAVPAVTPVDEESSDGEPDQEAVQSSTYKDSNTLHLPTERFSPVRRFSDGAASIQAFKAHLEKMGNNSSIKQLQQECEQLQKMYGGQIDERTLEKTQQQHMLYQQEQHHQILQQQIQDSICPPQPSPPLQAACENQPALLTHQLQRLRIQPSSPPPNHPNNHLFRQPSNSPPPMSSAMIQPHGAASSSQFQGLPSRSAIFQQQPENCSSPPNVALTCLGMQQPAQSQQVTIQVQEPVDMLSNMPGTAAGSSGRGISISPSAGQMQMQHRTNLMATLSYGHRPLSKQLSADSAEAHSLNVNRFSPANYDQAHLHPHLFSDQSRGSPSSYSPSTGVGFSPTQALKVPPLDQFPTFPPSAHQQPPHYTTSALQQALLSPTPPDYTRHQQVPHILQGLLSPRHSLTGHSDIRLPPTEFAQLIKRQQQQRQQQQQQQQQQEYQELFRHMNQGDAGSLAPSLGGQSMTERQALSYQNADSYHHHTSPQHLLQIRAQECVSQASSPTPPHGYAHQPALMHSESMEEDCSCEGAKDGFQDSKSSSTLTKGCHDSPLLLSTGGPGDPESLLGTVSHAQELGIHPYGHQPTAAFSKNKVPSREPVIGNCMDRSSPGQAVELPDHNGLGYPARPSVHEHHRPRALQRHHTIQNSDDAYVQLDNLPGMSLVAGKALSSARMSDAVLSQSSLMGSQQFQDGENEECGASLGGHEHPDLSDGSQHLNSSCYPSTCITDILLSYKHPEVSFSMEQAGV
Text: as §1, §2, §3, §4, §5, §6, §7, §8, §9

[1] = system: LPS-induced TNFα in monocytes; assay: Monocytes assay: LPS-triggered TNFα (ELISA); type: cell-based; conditions: Homo sapiens, Monocyte, LPS 200 ng/mL, supernatant after 4 h
Experimental: SIK inhibition inhibits TNFα and increases IL-10 release in LPS triggered monocyte-derived macrophages (MdM) and dendritic cells (MdDCs) (Clark et al. 2012; Sundberg et al. 2014; Ozanne et al. 2015). This assay evaluates illustrative compounds of the invention for their inhibition of LPS-induced TNFα and LPS triggered IL-10 secretion in monocytes.
PBMCs are isolated from human blood samples (buffycoats). The buffy coat is aseptically transferred into a 50 mL Falcon tube, and diluted ½ in PBS. Falcon tubes are filled with 20 mL Lymphoprep™, on top of which 25 mL of the buffy coat is carefully added, tubes are centrifuged for 35 min at 400 g in temperature controlled centrifuge, without brake, at 25° C. PBMCs are aspirated from the white interface layer between sample and Lymphoprep™. PBMCs are washed five times in PBS. Cells are resuspended in RPMI 1640 complete medium supplemented with 10% FBS, 1% P/S, and cell density is determined using a hematologic analyzer (Sysmex XS-500i).
PBMCs are centrifuged at 300×g for 10 min and resuspended at a density of 1.0*10^7 cells/80 μL Miltenyi buffer (PBS, pH 7.4, 1% FBS, 2 mM EDTA).
Starting from this point of the protocol all steps are performed on ice. 20 μL of CD14+ micro-beads are added per 1.0*10^7 cells, the tube is mixed and incubated for 15 min in the fridge at 4° C. Cell suspension volume is adjusted to total volume of 100 mL using Miltenyi buffer, mixed gently and subsequently centrifuged for 10 min at 300×g. Supernatant is discarded and cell pellet is resuspended in 12 mL of Miltenyi buffer.
Four LS columns are placed in the MACS Separator (magnet) from Miltenyi Biotec, and are prewet by rinsing with 3 mL of MACS buffer per column. Three mL of cell suspension is added onto the column (max 1*10^8 of labelled cells/column), and columns are subsequently washed 3 times with 3 mL of Miltenyi buffer.
The columns are removed from the magnets, and 5 mL of Miltenyi buffer are added to the column to flush out the CD14+ fraction by pushing the plunger into the column. The flushed fractions are collected in a fresh 50 mL Falcon and volume is adjusted to 30 mL using Miltenyi buffer, cells are centrifuged for 10 min at 300×g. The obtained cell pellet is resuspended in 10 mL RPMI w/o FBS, and cell density is determined using a hematologic analyser (Sysmex XS-500i). 100 000 cells are seeded in 80 μL per well of a 96-well plate in RPMI 1640 medium supplemented with 10% FBS, 1% P/S.
A compound dilution plate is made in 100% DMSO by 3-fold dilution of 10 mM stock solution. An intermediate dilution plate (10× final concentration) is made by diluting the compound dilution plate 50-fold in RPMI medium.
10 μL of the 10× final concentration compound is added to the cells and incubated for 1 h at 37° C. before addition of trigger. […]

T1 sequence (Q9H0K1 whole entry): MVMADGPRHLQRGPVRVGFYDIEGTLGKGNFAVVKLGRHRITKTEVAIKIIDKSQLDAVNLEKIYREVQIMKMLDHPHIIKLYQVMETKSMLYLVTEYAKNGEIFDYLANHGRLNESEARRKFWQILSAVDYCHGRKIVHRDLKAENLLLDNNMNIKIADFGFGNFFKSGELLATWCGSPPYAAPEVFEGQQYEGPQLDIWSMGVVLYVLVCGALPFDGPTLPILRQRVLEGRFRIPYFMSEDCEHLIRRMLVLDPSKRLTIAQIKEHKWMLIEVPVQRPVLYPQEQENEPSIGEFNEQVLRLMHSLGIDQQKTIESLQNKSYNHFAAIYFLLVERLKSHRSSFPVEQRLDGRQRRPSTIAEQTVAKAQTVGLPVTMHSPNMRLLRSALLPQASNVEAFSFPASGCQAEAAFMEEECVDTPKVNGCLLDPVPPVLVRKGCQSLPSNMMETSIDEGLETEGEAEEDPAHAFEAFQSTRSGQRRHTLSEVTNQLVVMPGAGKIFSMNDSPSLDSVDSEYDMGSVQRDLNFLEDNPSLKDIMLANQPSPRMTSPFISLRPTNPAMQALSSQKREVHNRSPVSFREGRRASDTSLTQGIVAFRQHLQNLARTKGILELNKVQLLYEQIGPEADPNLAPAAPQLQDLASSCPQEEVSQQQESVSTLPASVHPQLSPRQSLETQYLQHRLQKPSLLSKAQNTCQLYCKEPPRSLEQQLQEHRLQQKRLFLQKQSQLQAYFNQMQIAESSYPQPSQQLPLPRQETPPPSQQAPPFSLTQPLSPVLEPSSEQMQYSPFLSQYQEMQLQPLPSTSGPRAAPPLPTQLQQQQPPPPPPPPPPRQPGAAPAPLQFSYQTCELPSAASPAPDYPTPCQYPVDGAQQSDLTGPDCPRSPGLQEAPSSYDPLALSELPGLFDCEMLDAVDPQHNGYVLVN

IC50 (SIK2) [nM] | IC50 (SIK3) [nM] | EC50 [1] [nM] | Structure (SMILES)
0.01 to 10 | 0.01 to 10 | 100 to 1000 | COc1cc(-c2cnn3cc(OCCN4CCOCC4)ccc23)cc2c1C(=O)N(CC(F)(F)F)CC2 [Cpd 1, 8-methoxy-6-[6-(2-morpholinoethoxy)pyrazolo[1,5-a]pyridin-3-yl]-2-(2,2,2-trifluoroethyl)-3,4-dihydroisoquinolin-1-one]
100 to 500 | 0.01 to 10 | 100 to 1000 | COc1cc(-c2cnn3cc(OC(C)(C)CO)ccc23)cc(OC(F)F)c1C(=O)N[C@@H]1C[C@@H]1F [Cpd 2, 2-(difluoromethoxy)-N-[(1R,2S)-2-fluorocyclopropyl]-4-[6-(2-hydroxy-1,1-dimethyl-ethoxy)pyrazolo[1,5-a]pyridin-3-yl]-6-methoxy-benzamide]
100 to 500 | 10 to 100 | 100 to 1000 | COc1cc(-c2cnn3cc(OC(C)(C)CN4CCOCC4)ccc23)cc(OC(F)F)c1C(=O)N[C@@H]1C[C@@H]1F [Cpd 3, 2-(difluoromethoxy)-4-[6-(1,1-dimethyl-2-morpholino-ethoxy)pyrazolo[1,5-a]pyridin-3-yl]-N-[(1R,2S)-2-fluorocyclopropyl]-6-methoxy-benzamide]
